Experimental findings from patent US10544095B2 (Pfizer Inc., priority 2015, dated 2020) are described below.

SMILES strings stand for the structures.

hTDO2 in human glioblastoma A172 cells, sequence (P48775 whole entry): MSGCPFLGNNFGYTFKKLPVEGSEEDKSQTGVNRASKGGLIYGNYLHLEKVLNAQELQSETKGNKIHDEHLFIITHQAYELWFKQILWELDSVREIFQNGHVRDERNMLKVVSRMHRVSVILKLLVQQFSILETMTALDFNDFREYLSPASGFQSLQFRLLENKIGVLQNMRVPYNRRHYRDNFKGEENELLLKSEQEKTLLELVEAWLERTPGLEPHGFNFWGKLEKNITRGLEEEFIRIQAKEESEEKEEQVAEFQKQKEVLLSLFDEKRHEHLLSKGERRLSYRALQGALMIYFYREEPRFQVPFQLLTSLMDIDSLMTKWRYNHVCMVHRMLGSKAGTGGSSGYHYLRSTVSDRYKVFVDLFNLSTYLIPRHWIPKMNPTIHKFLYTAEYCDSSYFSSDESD

The assay addresses hTDO2 in human glioblastoma A172 cells (Homo sapiens (Human), UniProt P48775). Kind of assay: Cellular assay for TDO2 activity determination in A172 cells. In kind it is cell-based. The conditions noted are these: overnight incubation, kynurenine absorbance at 480 nm. The gist of the method:
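Glioblastoma A172 cells with endogenous hTDO2, 1.25×10^4 cells/well, incubated overnight at 37° C. with ten serial compound concentrations in IMDM with 2% FBS. Supernatant kynurenine, after TCA precipitation and 4-(dimethylamino)-benzaldehyde reaction, read at 480 nm against kynurenine standard curve; data curve-fitted.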
In general, IC50 refers to the concentration needed to halve the response being measured. For `CN(C)CCc1cc(-c2c[nH]c3cc(F)ccc23)ccc1S(N)(=O)=O` [Example 141, 2-(2-(dimethylamino)ethyl)-4-(6-fluoro-1H-indol-3-yl)benzenesulfonamide], half-maximal inhibition (IC50) required 295 nM. This counts as sub-micromolar.
The value for `NS(=O)(=O)c1ccc(-c2c[nH]c3cc(F)ccc23)cc1CC(F)(F)F` [Example 142, 4-(6-fluoro-1H-indol-3-yl)-2-(2,2,2-trifluoroethyl)-benzenesulfonamide] was 247 nM; that for `CNC(=O)Cc1cc(-c2c[nH]c3cc(F)ccc23)ccc1S(N)(=O)=O` [Example 143, 2-(5-(6-fluoro-1H-indol-3-yl)-2-sulfamoylphenyl)-N-methylacetamide] was 550 nM.
The value for `NC(=O)Cc1cc(-c2c[nH]c3cc(F)ccc23)ccc1S(N)(=O)=O` [Example 144, 2-(5-(6-fluoro-1H-indol-3-yl)-2-sulfamoylphenyl)-acetamide] was 174 nM.
To `CN1C(=O)CN(S(=O)(=O)c2ccc(-c3c[nH]c4cc(F)ccc34)cc2)CC1=O` [Example 145, 4-((4-(6-fluoro-1H-indol-3-yl)phenyl)sulfonyl)-1-methylpiperazine-2,6-dione] belongs 3610 nM; to `O=C1CN(S(=O)(=O)c2ccc(-c3c[nH]c4cc(F)ccc34)cc2)CCN1C[C@@H](O)CO` [Example 146, (R)-1-(2,3-dihydroxypropyl)-4-((4-(6-fluoro-1H-indol-3-yl)phenyl)sulfonyl)piperazin-2-one], 380 nM; to `O=C1CN(S(=O)(=O)c2ccc(-c3c[nH]c4cc(F)ccc34)cc2)CCN1C[C@H](O)CO` [Example 147, (S)-1-(2,3-dihydroxypropyl)-4-((4-(6-fluoro-1H-indol-3-yl)phenyl)sulfonyl)piperazin-2-one], 441 nM.
`NCCN1CCN(S(=O)(=O)c2ccc(-c3c[nH]c4cc(F)ccc34)cc2)CC1=O` [Example 148, 1-(2-aminoethyl)-4-((4-(6-fluoro-1H-indol-3-yl)phenyl)sulfonyl)piperazin-2-one] showed an IC50 of 570 nM.
The value for `CN(C)CCN1CCN(S(=O)(=O)c2ccc(-c3c[nH]c4cc(F)ccc34)cc2)CC1=O` [Example 149, 1-(2-(dimethylamino)ethyl)-4-((4-(6-fluoro-1H-indol-3-yl)phenyl)sulfonyl)piperazin-2-one] was 443 nM; that for `CNCCN1CCN(S(=O)(=O)c2ccc(-c3c[nH]c4cc(F)ccc34)cc2)CC1=O` [Example 150, 4-((4-(6-fluoro-1H-indol-3-yl)phenyl)sulfonyl)-1-(2-(methylamino)ethyl) piperazin-2-one] was 365 nM; that for `O=C1CN(S(=O)(=O)c2ccc(-c3c[nH]c4cc(F)ccc34)cc2)CCN1CCO` [Example 151, 4-((4-(6-fluoro-1H-indol-3-yl)phenyl)sulfonyl)-1-(2-hydroxyethyl)piperazin-2-one] was 439 nM.
Consider `NCCCN1CCN(S(=O)(=O)c2ccc(-c3c[nH]c4cc(F)ccc34)cc2)CC1=O` [Example 152, 1-(3-aminopropyl)-4-((4-(6-fluoro-1H-indol-3-yl)phenyl-)sulfonyl)piperazin-2-one], for which the IC50 was 1320 nM.
To `CNCCCN1CCN(S(=O)(=O)c2ccc(-c3c[nH]c4cc(F)ccc34)cc2)CC1=O` [Example 153, 4-((4-(6-fluoro-1H-indol-3-yl)phenyl)sulfonyl)-1-(3-(methylamino)propyl)piperazin-2-one] belongs 1040 nM.
To `CN(C)CCCN1CCN(S(=O)(=O)c2ccc(-c3c[nH]c4cc(F)ccc34)cc2)CC1=O` [Example 154, 1-(3-(dimethylamino)propyl)-4-((4-(6-fluoro-1H-indol-3-yl)phenyl)sulfonyl) piperazine-2-one] belongs 360 nM; to `Cc1noc(CNS(=O)(=O)c2ccc(-c3c[nH]c4cc(F)ccc34)cc2)n1` [Example 155, 4-(6-fluoro-1H-indol-3-yl)-N-((3-methyl-1,2,4-oxadiazol-5-yl)methyl) benzenesulfonamide], 186 nM; to `O=S(=O)(NCc1ncon1)c1ccc(-c2c[nH]c3cc(F)ccc23)cc1` [Example 156, N-((1,2,4-oxadiazol-3-yl)methyl)-4-(6-fluoro-1H-indol-3-yl)benzenesulfonamide], 150 nM.
To `O=S(=O)(NCCO)c1ccc(-c2c[nH]c3cc(F)ccc23)cc1` [Example 157, 4-(6-fluoro-1H-indol-3-yl)-N-(2-hydroxyethyl)-benzenesulfonamide] belongs 66 nM; to `O=S(=O)(NCCO)c1ccc(-c2c[nH]c3cc(F)ccc23)c(Cl)c1` [Example 158, 3-chloro-4-(6-fluoro-1H-indol-3-yl)-N-(2-hydroxyethyl) benzenesulfonamide], 283 nM.
`Cc1nc(CCNS(=O)(=O)c2ccc(-c3c[nH]c4cc(F)ccc34)cc2)c[nH]1` [Example 161, 4-(6-fluoro-1H-indol-3-yl)-N-(2-(2-methyl-1H-imidazol-4-yl)ethyl)benzenesulfonamide] showed an IC50 of 220 nM.
The value for `CCc1cc(-c2c[nH]c3cc(F)ccc23)ccc1S(=O)(=O)NCCC(N)=O` [Example 162, 3-(2-ethyl-4-(6-fluoro-1H-indol-3-yl)phenylsulfonamido)-propanamide] was 405 nM; that for `CC(C)c1cc(-c2c[nH]c3cc(F)ccc23)ccc1S(=O)(=O)NCCC(N)=O` [Example 163, 3-((4-(6-fluoro-1H-indol-3-yl)-2-isopropylphenyl)-sulfonamido) propanamide] was 2220 nM; that for `CC(C)Cc1cc(-c2c[nH]c3cc(F)ccc23)ccc1S(=O)(=O)NCCC(N)=O` [Example 164, 3-((4-(6-fluoro-1H-indol-3-yl)-2-isobutylphenyl)-sulfonamido)propanamide] was 5930 nM.
The value for `COCc1cc(-c2c[nH]c3cc(F)ccc23)ccc1S(=O)(=O)NCCC(N)=O` [Example 165, 3-((4-(6-fluoro-1H-indol-3-yl)-2-(methoxymethyl)phenyl)-sulfonamido) propanamide] was 341 nM; that for `CC(C)Oc1cc(-c2c[nH]c3cc(F)ccc23)ccc1S(=O)(=O)NCCC(N)=O` [Example 166, 3-((4-(6-fluoro-1H-indol-3-yl)-2-isopropoxyphenyl)-sulfonamido)propanamide] was 4060 nM.
The value for `NC(=O)CCNS(=O)(=O)c1ccc(-c2c[nH]c3cc(F)ccc23)cc1CO` [Example 167, 3-((4-(6-fluoro-1H-indol-3-yl)-2-(hydroxymethyl)-phenyl)sulfonamido)propanamide] was 41 nM; that for `NC(=O)CCNS(=O)(=O)c1ccc(-c2c[nH]c3cc(F)ccc23)cc1C(F)(F)F` [Example 168, 3-((4-(6-fluoro-1H-indol-3-yl)-2-(trifluoromethyl)phenyl)-sulfonamido)propanamide] was 270 nM.
Compound `O=C(CCNS(=O)(=O)c1ccc(-c2c[nH]c3cc(F)ccc23)cc1)N1C[C@@H](O)[C@@H](O)C1` [Example 169, N-(3-((cis)-3,4-dihydroxypyrrolidin-1-yl)-3-oxopropyl)-4-(6-fluoro-1H-indol-3-yl)benzenesulfonamide] gave a half-maximal inhibitory concentration (IC50) of 511 nM.
The value for `O=C(CCNS(=O)(=O)c1ccc(-c2c[nH]c3cc(F)ccc23)cc1)N1C[C@@H](O)[C@H](O)C1` [Example 170, (+)-N-(3-((3R,4R)-3,4-dihydroxypyrrolidin-1-yl)-3-oxopropyl)-4-(6-fluoro-1H-indol-3-yl) benzenesulfonamide] was 1210 nM; that for `O=C(CCNS(=O)(=O)c1ccc(-c2c[nH]c3cc(F)ccc23)cc1)N1C[C@H](O)[C@@H](O)C1` [Example 171, (−)-N-(3-((3S,4S)-3,4-dihydroxypyrrolidin-1-yl)-3-oxopropyl)-4-(6-fluoro-1H-indol-3-yl)benzenesulfonamide] was 1740 nM.
The value for `N[C@@H]1CN(C(=O)CCNS(=O)(=O)c2ccc(-c3c[nH]c4cc(F)ccc34)cc2)C[C@H]1F` [Example 174, (+)-N-(3-((3R,4R)-3-amino-4-fluoropyrrolidin-1-yl)-3-oxopropyl)-4-(6-fluoro-1H-indol-3-yl)benzenesulfonamide] was 383 nM; that for `NC(=O)CCNS(=O)(=O)c1ccc(-c2c[nH]c3cc(F)ccc23)cc1CC(F)F` [Example 175, 3-((2-(2,2-difluoroethyl)-4-(6-fluoro-1H-indol-3-yl)-phenyl)sulfonamido)propanamide] was 449 nM.
The value for `NS(=O)(=O)c1ccc(-c2c[nH]c3cc(F)ccc23)cc1CO` [Example 176, 4-(6-fluoro-1H-indol-3-yl)-2-(hydroxymethyl)benzenesulfonamide] was 55 nM; that for `NCc1cc(-c2c[nH]c3cc(F)ccc23)ccc1S(N)(=O)=O` [Example 177, 2-(aminomethyl)-4-(6-fluoro-1H-indol-3-yl)benzenesulfonamide] was 700 nM.
Turning to `CS(=O)(=O)c1ccc(-c2c[nH]c3cc(F)ccc23)cc1CN` [Example 178, (5-(6-fluoro-1H-indol-3-yl)-2-(methylsulfonyl)phenyl)methanamine], the IC50 amounted to 411 nM.
The value for `CS(=O)(=O)c1ccc(-c2c[nH]c3cc(F)ccc23)cc1CCO` [Example 179, 2-(5-(6-fluoro-1H-indol-3-yl)-2-(methylsulfonyl)phenyl)ethanol] was 79 nM.
